Source: patent publication US8241681B2, “Synergistic mixtures of bisabolol and ginger extract” (Symrise AG, priority 2005, dated 2012)

System: erythema raised by 24-hour occlusive treatment with SDS (sodium dodecyl sulfate), inside under-arm skin
Assay: SDS inflammation test (SDS irritation study), reduction in reddening of the skin
Assay type: in vivo, human
Conditions: after 3 days
Method: The SDS inflammation test was used as the test model. The study was conducted on the inside under-arm of 20 subjects (9 female, 11 male, age: 24-62 years). The reddening of the skin was recorded with a Minolta-Chromameter CR 300 via the a* value of the La′b′ colour system, which describes the position on the red-green axis. The measurements were taken before and 4-6 hours after raising the erythema by 24-hour occlusive treatment with SDS (sodium dodecyl sulfate). The skin was then treated with the test formulation in question 2 times daily for 3 days. 4-6 h after the last application on day 3, the reddening of the skin was determined and the reduction in reddening was calculated from this.
For the study, a defined amount of the active compound combination C according to the invention was incorporated into an O/W emulsion. For comparison purposes, the comparison active compounds A and B were incorporated into separate O/W emulsions.
Extrapon Ginger (Symrise) comprising 1% of ginger CO2 extract, characterized by 25-33% in total of piquant substances with gingerols, shogaols (<3%) and zingerone (<0.5%) and 38-46% of steam-volatile constituents was employed as comparison active compound A.
Calculation of the synergy index (SI) value according to Kull for the reduction in reddening in the SDS inflammation test for a mixture of bisabolol and ginger extract after a treatment time of 3 days: […]

## CC(C)=CCC[C@](C)(O)[C@@H]1CC=C(C)CC1 [Formulation with active compound B, -(-Alpha-)-Bisabolol, natural]
O/W emulsion applied 2 times daily, 20 subjects, Minolta-Chromameter CR 300, Example 11
  Reduction in reddening relative to the start conditions (a* value): 2.42
Reduction in reddening active compound minus reduction in reddening placebo, Example 11
  Placebo-corrected reduction in reddening (a* value): 1.02
